Each block holds one molecule with its values, some of them ahead of it.
How the values were obtained:
[1] = test system: NIH 3T3 cells transformed by the T24 activated human H-ras gene; assay: Ras-Transformed Cell Phenotype Reversion Assay; assay type: cell-based, mouse; conditions: NIH3T3; Table 8; T24 H-ras transformed NIH 3T3 cells; 72 hours; cell counts
From the text: "Ras-Transformed Cell Phenotype Reversion Assay" Insertion of activated oncogenes such as the mutant ras gene into mouse NIH 3T3 cells converts the cells to a transformed phenotype. The cells become tumorigenic, display anchorage independent growth in semi-solid medium and lose contact inhibition. Loss of contact inhibition produces cell cultures which no longer form uniform monolayers. Rather, the cells pile up into multicellular nodules and grow to very high saturation densities in plastic tissue culture dishes. Agents such as protein farnesyl transferase inhibitors which revert the ras transformed phenotype restore the uniform monolayer growth pattern to cells in culture. This reversion is easily monitored by counting the number of cells in tissue culture plates. Transformed cells will achieve higher cell numbers than cells which have reverted to an untransformed phenotype. Compounds which revert the transformed phenotype should produce antitumor effects in tumors bearing ras gene mutations. Method Compounds are screened in tissue culture in NIH 3T3 cells transformed by the T24 activated human H-ras gene. Cells are seeded at an initial density of 200,000 cells per well (9.6 cm^2 surface area) in six-well cluster tissue culture plates. Test compounds are immediately added to 3.0 ml cell growth mediuim in a 3.0 μl volume of DMSO, with a final concentration of DMSO in the cell growth medium of 0.1%. […] Then the cells are detached in 1.0 ml trypsin-EDTA cell dissociation medium and counted on a Coulter particle counter. Measurements Cell numbers expressed as cells per well are measured using a Coulter Particle Counter. All cell counts were corrected for the initial cell input density by subtracting 200,000. Control cell counts=[cell counts from cells incubated with DMSO vehicle--200,000] Test compound cell counts=[cell counts from cells incubated with test compound--200,000]. [formula]

[2] = target: T1, Human farnesyl protein transferase (Homo sapiens, UniProt P49354+P49356); assay: In Vitro Assay for Inhibition of Farnesyl Protein Transferase ([3H] Scintillation Proximity Assay); assay type: biochemical; conditions: Table 7; human enzyme from KHOS cells; biotinylated lamin B peptide substrate; 60 min, 37° C.; read-out: IC50 (concentration of test compound producing 50% inhibition of enzyme activity)
T1 construct: were used as a source of human enzyme; endogenous in cells; host or cells: Kirsten virus transformed human osteosarcoma (KHOS) cells (ATCC), grown as monolayers or as solid tumors in nude mice; ammonium sulfate fraction and Q Sepharose pool
Experimental: In Vitro Assay for Inhibition of Farnesyl Protein Transferase Human farnesyl protein transferase was prepared essentially as described ([…] al., Methods: A Companion to Methods in Enzymology vol 1, 241-245, 1990). Kirsten virus transformed human osteosarcoma (KHOS) cells (American Type Culture Collection, Rockvill, Md., USA) grown as solid tumors in nude mice or grown as monolayer cell cultures were used as a source of human enzyme. Briefly, cells or tumors were homogenized in buffer containing 50 mM Tris, 1 mM EDTA, 1 mM EGTA and 0.2 mM phenylmethylsulfonylfluoride (pH 7.5). The homogenates were centrifuged 28,000× g for 60 min and the supernatants collected. A 30-50% ammonium sulfate […] prepared, and the resulting precipitate was resuspended in a small (10 to 20 ml) volume of dialysis buffer containing 20 mM Tris, 1 mM dithiothreitol and 20 μM ZnCl2. The ammonium sulfate fraction was dialyzed overnight against two changes of the same buffer. The dialyzed material was applied to a 10×1 cm Q Fast Flow Sepharose (Pharmacia LKB Biotechnology Inc., Piscataway, N.J., USA) which had been preequilibrated with 100 ml of dialysis buffer supplemented with 0.05M NaCl. The column was washed with an additional 50 ml of dialysis buffer plus 0.05M NaCl followed by a gradient from 0.05M to 0.25M NaCl prepared in dialysis buffer. The enzyme activity was eluted with a linear gradient of 0.25 to 1.0M NaCl prepared in the dialysis buffer. Fractions containing 4 to 5 ml volumes of column eluate were collected and analyzed for farnesyl protein transferase activity. Fractions with enzyme activity were pooled and supplemented with 100 μM ZnCl2. Enzyme samples were stored frozen at -70° C. The activity of farnesyl protein transferase was measured using the Farnesyl Transferase [^3 H] Scintillation Proximity Assay (Amersham International plc., England) under the conditions specified by the manufacturer. […] The reaction mixture was warmed to 37° C. The enzyme reaction was started by adding 20 μl of diluted human farnesyl protein transferase. […] Reactions were terminated by the addition of STOP/scintillation proximity bead reagent (Amersham). The reaction product [^3 H]-farnesyl-(Cys)-biotin lamin B peptide was captured on the streptavidin linked scintillation proximity bead. The amount of [^3 H]-farnesyl-(Cys)-biotin lamin B peptide synthesized in the presence or absence of test compounds was quantified as cpm by counting on a Wallac Model 1480 Microbeta Liquid Scintillation Counter. The cpm of product was considered to be farnesyl protein transferase activity. The protein farnesyl transferase activity observed in the presence of test compound was normalized to farnesyl transferase activity in the presence of 10% DMSO and expressed as per cent inhibition. […] W. Johnson Pharmaceutical Research Institue (Spring House, Pa., USA) on a VAX computer.

SMILES: Cc1cncn1C(C)(c1ccc(Cl)cc1)c1ccc2c(c1)c(-c1cccc(Cl)c1)cc(=O)n2C (stereo not shown) [Compound 64, 4-(3-chlorophenyl)-6-[1-(4-chlorophenyl)-1-(5-methyl-1H-imidazol-1-yl)ethyl]-1-methyl-2(1H)-quinolinone]
- IC50 [1]: 133 nM
- IC50 [2]: 11 nM

SMILES: O=c1cc(-c2cccc(Cl)c2)c2cc(C(c3ccc(Cl)cc3)n3ccnc3)ccc2[nH]1 (single isomer, unassigned) [Compound 23]
- IC50 [1]: 204 nM
- IC50 [2]: 15 nM

SMILES: COCCn1c(=O)cc(-c2cccc(Cl)c2)c2cc(C(c3ccc(Cl)cc3)n3ccnc3)ccc21 (stereo not shown) [Compound 77, 4-(3-chlorophenyl)-6-[(4-chlorophenyl)(1H-imidazol-1-yl)methyl]-1-(2-methoxyethyl)-2(1H)-quinolinone ethanedioate (2:3) monohydrate]
- IC50 [1]: 189 nM
- IC50 [2]: 7.2 nM

SMILES: CN(C)CCn1c(=O)cc(-c2cccc(Cl)c2)c2cc(C(c3ccc(Cl)cc3)n3ccnc3)ccc21 (stereo not shown) [Compound 80]
- IC50 [1]: 169 nM

SMILES: Cn1c(=O)cc(-c2ccc3c(c2)OCO3)c2cc(C(c3ccc(Cl)cc3)n3ccnc3)ccc21 (stereo not shown) [Compound 83, 6-[(4-chlorophenyl)(1H-imidazol-1-yl)methyl]-4-(1,3-benzodioxol-5-yl)-1-methyl-2(1H)-quinolinone ethanedioate (1:1)]
- IC50 [1]: 68 nM
- IC50 [2]: 3.4 nM

Continued by falling IC50 [2], values first:

- IC50 [2]: 30 nM
SMILES: CCC(c1ccc(Cl)cc1)(c1ccc2c(c1)c(-c1cccc(Cl)c1)cc(=O)n2C)n1ccnc1 (stereo not shown) [Compound 63]
- IC50 [1]: 294 nM

- IC50 [2]: 5.6 nM
SMILES: Cn1c(=O)cc(-c2cccc(Cl)c2)c2cc(C(CO)(c3ccc(Cl)cc3)n3ccnc3)ccc21 (stereo not shown) [Compound 66]
- IC50 [1]: 53 nM

Reference: patent US5968952A, “Farnesyl transferase inhibiting 2-quinolone derivatives” (Janssen Pharmaceutica, N.V., priority 1995, dated 1999)
